Literature values, collected in patent US8592402B2, “Compounds as lysophosphatidic acid receptor antagonists” (Amira Pharmaceuticals, Inc., priority 2009, dated 2013).

Key:
nerve-injured mice = conditions: pretreatment
[1] = test system: human foetal lung fibroblasts
[2] = test system: highly peritoneal metastatic pancreatic cancer cell line; conditions: LPA-induced and ascites-induced
UUO mice = conditions: compared with LPA1 (−/−) mice
[3] = test system: mouse epithelial renal cell line, MCT; conditions: LPA treatment of MCT cells, co-treatment
[4] = test system: pancreatic cancer cell lines; conditions: in response to LPA and peritoneal fluid (ascites) from pancreatic cancer patients

Structure (SMILES) | allodynia and hyperalgesia (nerve-injured mice) | fibroblast chemotactic activity ([1]; bronchoalveolar lavage samples of human subjects with IPF) | chemotaxis of human foetal lung fibroblasts ([1]; induced by BAL obtained from IPF patients) | invasion activity [2] | development of renal fibrosis (UUO mice) | induction of CTGF expression [3] | in vitro migration [4]
C[C@@H](N)[C@H]1CC[C@H](C(=O)Nc2ccncc2)CC1 [Compound Y-27632] | completely abolished |  |  |  |  |  | 
Cc1noc(-c2ccc(CSCCC(=O)O)cc2)c1NC(=O)OC(C)c1ccccc1Cl (stereo not shown) [Ki16425] |  | inhibited | blocked | blocked | closely resembled the LPA1 (−/−) mice | almost completely suppressed | effectively blocked
